Source: patent US10004701B2, “Methods and compositions for treating infection” (UNIVERSITY OF ROCHESTER, priority 2012, dated 2018)
Counter-ions that a name gives are not always drawn. Like-named read-outs stand apart in the source and are kept apart here.

Key:
Assay in all cases: AK assay 384-well format, Prestwick library screening
[1] = test system: A. baumannii strain 98-37-09; type: cell-based, Acinetobacter baumannii; conditions: 50 μM final drug concentration; for fold induction at 50 µM: Acinetobacter baumannii, 983709, 3 h
P. aeruginosa = type: cell-based, Pseudomonas aeruginosa; conditions: 50 μM final drug concentration; for fold induction at 50 µM: Pseudomonas aeruginosa, 3 h
K. pneumoniae = type: cell-based, Klebsiella pneumoniae; conditions: 50 μM final drug concentration; for fold induction at 50 µM: Klebsiella pneumoniae, 3 h
E. coli = type: cell-based, Escherichia coli; conditions: 50 μM final drug concentration; for fold induction at 50 µM: Escherichia coli, 3 h
[2] = test system: S. aureus strain USA300-0114; type: cell-based, Staphylococcus aureus; conditions: 50 μM final drug concentration; for fold induction at 50 µM: Staphylococcus aureus, USA300, 3 h
E. faecium = type: cell-based, Enterococcus faecium; conditions: 50 μM final drug concentration; for fold induction at 50 µM: Enterococcus faecium, 3 h
E. cloacae = type: cell-based, Enterobacter cloacae; conditions: 50 μM final drug concentration; for fold induction at 50 µM: Enterobacter cloacae, 3 h
[3] = planktonic A. baumannii, cutoff for positive-scoring molecules 3-fold increase, read-out: AK-based Prestwick Library Screening Results, A. baumannii (increase in extracellular AK activity)
[4] = planktonic P. aeruginosa, cutoff for positive-scoring molecules 3-fold increase, read-out: AK-based Prestwick Library Screening Results, P. aeruginosa (increase in extracellular AK activity)
[5] = planktonic K. pneumoniae, cutoff for positive-scoring molecules 3-fold increase, read-out: AK-based Prestwick Library Screening Results, K. pneumoniae (increase in extracellular AK activity)
[6] = planktonic E. coli, cutoff for positive-scoring molecules 3-fold increase, read-out: AK-based Prestwick Library Screening Results, E. coli (increase in extracellular AK activity)
[7] = planktonic S. aureus, cutoff for positive-scoring molecules 3-fold increase, read-out: AK-based Prestwick Library Screening Results, S. aureus (increase in extracellular AK activity)
[8] = planktonic E. faecium, cutoff for positive-scoring molecules 3-fold increase, read-out: AK-based Prestwick Library Screening Results, E. faecium (increase in extracellular AK activity)
[9] = planktonic E. cloacae, cutoff for positive-scoring molecules 3-fold increase, read-out: AK-based Prestwick Library Screening Results, E. cloacae (increase in extracellular AK activity)

CN[C@@H]1[C@@H](O)[C@@H](O[C@@H]2[C@@H](O)[C@H](O[C@H]3OC(CN)=CC[C@H]3N)[C@@H](N)C[C@H]2N)OC[C@]1(C)O [Sisomicin sulfate] gave a fold induction at 50 µM [1, 3] of 0.9, a fold induction at 50 µM (P. aeruginosa; [4]) of 0.9 and a fold induction at 50 µM (K. pneumoniae; [5]) of 0.6. For the same compound, the fold induction at 50 µM (E. coli; [6]) was 0.8, the fold induction at 50 µM [2, 7] was 0.6 and the fold induction at 50 µM (E. faecium; [8]) was 0.9. It also gave a fold induction at 50 µM (E. cloacae; [9]) of 1.

In the case of CN(C)CCCN1c2ccccc2CCc2ccc(Cl)cc21 [Clomipramine hydrochloride], the fold induction at 50 µM ([1]; 384-well format, cutoff for positive-scoring molecules 3-fold increase, read-out: AK-based Prestwick Library Screening Results, A. baumannii (increase in extracellular AK activity)) is reported as 1, the fold induction at 50 µM (P. aeruginosa; 384-well format, cutoff for positive-scoring molecules 3-fold increase, read-out: AK-based Prestwick Library Screening Results, P. aeruginosa (increase in extracellular AK activity)) is reported as 0.9 and the fold induction at 50 µM (K. pneumoniae; 384-well format, cutoff for positive-scoring molecules 3-fold increase, read-out: AK-based Prestwick Library Screening Results, K. pneumoniae (increase in extracellular AK activity)) is reported as 0.7. It also gave a fold induction at 50 µM (E. coli; 384-well format, cutoff for positive-scoring molecules 3-fold increase, read-out: AK-based Prestwick Library Screening Results, E. coli (increase in extracellular AK activity)) of 1.1, a fold induction at 50 µM ([2]; 384-well format, cutoff for positive-scoring molecules 3-fold increase, read-out: AK-based Prestwick Library Screening Results, S. aureus (increase in extracellular AK activity)) of 0.8 and a fold induction at 50 µM (E. faecium; 384-well format, cutoff for positive-scoring molecules 3-fold increase, read-out: AK-based Prestwick Library Screening Results, E. faecium (increase in extracellular AK activity)) of 1.1. The fold induction at 50 µM (E. cloacae; 384-well format, cutoff for positive-scoring molecules 3-fold increase, read-out: AK-based Prestwick Library Screening Results, E. cloacae (increase in extracellular AK activity)) was 1.

Compound COC(=O)Nc1nc2ccc(Sc3ccccc3)cc2[nH]1 [Fenbendazole] has a fold induction at 50 µM ([1]; planktonic A. baumannii, 384-well, cutoff for positive-scoring molecules 3-fold increase, read-out: AK-based Prestwick Library Screening Results: A. baumannii (increase in extracellular AK activity)) of 0.9, a fold induction at 50 µM (P. aeruginosa; planktonic P. aeruginosa, 384-well, cutoff for positive-scoring molecules 3-fold increase, read-out: AK-based Prestwick Library Screening Results: P. aeruginosa (increase in extracellular AK activity)) of 0.9 and a fold induction at 50 µM (K. pneumoniae; planktonic K. pneumoniae, 384-well, cutoff for positive-scoring molecules 3-fold increase, read-out: AK-based Prestwick Library Screening Results: K. pneumoniae (increase in extracellular AK activity)) of 0.7. For the same compound, the fold induction at 50 µM (E. coli; planktonic E. coli, 384-well, cutoff for positive-scoring molecules 3-fold increase, read-out: AK-based Prestwick Library Screening Results: E. coli (increase in extracellular AK activity)) was 0.9, the fold induction at 50 µM ([2]; planktonic S. aureus, 384-well, cutoff for positive-scoring molecules 3-fold increase, read-out: AK-based Prestwick Library Screening Results: S. aureus (increase in extracellular AK activity)) was 0.6 and the fold induction at 50 µM (E. faecium; planktonic E. faecium, 384-well, cutoff for positive-scoring molecules 3-fold increase, read-out: AK-based Prestwick Library Screening Results: E. faecium (increase in extracellular AK activity)) was 0.9. For the same compound, the fold induction at 50 µM (E. cloacae; planktonic E. cloacae, 384-well, cutoff for positive-scoring molecules 3-fold increase, read-out: AK-based Prestwick Library Screening Results: E. cloacae (increase in extracellular AK activity)) was 1.3.

CCCCC[C@H](O)/C=C/[C@H]1[C@H](O)CC(=O)[C@@H]1CCCCCCC(=O)O [Alprostadil] gave a fold induction at 50 µM ([1]; planktonic A. baumannii, positive cutoff 3-fold increase, read-out: AK-based Prestwick library screening result, A. baumannii (fold increase in extracellular AK activity)) of 1, a fold induction at 50 µM (P. aeruginosa; planktonic P. aeruginosa, positive cutoff 3-fold increase, read-out: AK-based Prestwick library screening result, P. aeruginosa (fold increase in extracellular AK activity)) of 1.1 and a fold induction at 50 µM (K. pneumoniae; planktonic K. pneumoniae, positive cutoff 3-fold increase, read-out: AK-based Prestwick library screening result, K. pneumoniae (fold increase in extracellular AK activity)) of 1.1. It also gave a fold induction at 50 µM (E. coli; planktonic E. coli, positive cutoff 3-fold increase, read-out: AK-based Prestwick library screening result, E. coli (fold increase in extracellular AK activity)) of 1.3, a fold induction at 50 µM ([2]; planktonic S. aureus, positive cutoff 3-fold increase, read-out: AK-based Prestwick library screening result, S. aureus (fold increase in extracellular AK activity)) of 1.1 and a fold induction at 50 µM (E. faecium; planktonic E. faecium, positive cutoff 3-fold increase, read-out: AK-based Prestwick library screening result, E. faecium (fold increase in extracellular AK activity)) of 1. For the same compound, the fold induction at 50 µM (E. cloacae; planktonic E. cloacae, positive cutoff 3-fold increase, read-out: AK-based Prestwick library screening result, E. cloacae (fold increase in extracellular AK activity)) was 1.4.

In the case of CC1=C2[C@H]3OC(=O)[C@@H](C)[C@@H]3CC[C@@]2(C)C=CC1=O [alpha-Santonin], the fold induction at 50 µM ([1]; planktonic A. baumannii, […], read-out: AK-based Prestwick library screening result, A. baumannii (fold increase in extracellular AK activity)) is reported as 0.8, the fold induction at 50 µM (P. aeruginosa; planktonic P. aeruginosa, […], read-out: AK-based Prestwick library screening result, P. aeruginosa (fold increase in extracellular AK activity)) is reported as 0.9 and the fold induction at 50 µM (K. pneumoniae; planktonic K. pneumoniae, […], read-out: AK-based Prestwick library screening result, K. pneumoniae (fold increase in extracellular AK activity)) is reported as 0.7. It also gave a fold induction at 50 µM (E. coli; planktonic E. coli, […], read-out: AK-based Prestwick library screening result, E. coli (fold increase in extracellular AK activity)) of 0.8, a fold induction at 50 µM ([2]; planktonic S. aureus, […], read-out: AK-based Prestwick library screening result, S. aureus (fold increase in extracellular AK activity)) of 0.9 and a fold induction at 50 µM (E. faecium; planktonic E. faecium, […], read-out: AK-based Prestwick library screening result, E. faecium (fold increase in extracellular AK activity)) of 1. It also gave a fold induction at 50 µM (E. cloacae; planktonic E. cloacae, […], read-out: AK-based Prestwick library screening result, E. cloacae (fold increase in extracellular AK activity)) of 0.9.

For CC(C)NCC(O)c1cc(O)cc(O)c1.CC(C)NCC(O)c1cc(O)cc(O)c1.O=S(=O)(O)O (stereo not drawn), the “AK-based Prestwick Library Screening Results, A. baumannii (increase in extracellular AK activity)” value ([1]; planktonic A. baumannii, cutoff for positive-scoring molecules 3-fold increase) was 0.9, the “AK-based Prestwick Library Screening Results, P. aeruginosa (increase in extracellular AK activity)” value (P. aeruginosa; planktonic P. aeruginosa, cutoff for positive-scoring molecules 3-fold increase) was 0.9 and the “AK-based Prestwick Library Screening Results, K. pneumoniae (increase in extracellular AK activity)” value (K. pneumoniae; planktonic K. pneumoniae, cutoff for positive-scoring molecules 3-fold increase) was 0.7. For the same compound, the “AK-based Prestwick Library Screening Results, E. coli (increase in extracellular AK activity)” value (E. coli; planktonic E. coli, cutoff for positive-scoring molecules 3-fold increase) was 1.0, the “AK-based Prestwick Library Screening Results, S. aureus (increase in extracellular AK activity)” value ([2]; planktonic S. aureus, cutoff for positive-scoring molecules 3-fold increase) was 0.6 and the “AK-based Prestwick Library Screening Results, E. faecium (increase in extracellular AK activity)” value (E. faecium; planktonic E. faecium, cutoff for positive-scoring molecules 3-fold increase) was 0.9. For the same compound, the “AK-based Prestwick Library Screening Results, E. cloacae (increase in extracellular AK activity)” value (E. cloacae; planktonic E. cloacae, cutoff for positive-scoring molecules 3-fold increase) was 1.0.

Cc1noc(NS(=O)(=O)c2ccc(N)cc2)c1C [Sulfisoxazole] was tested, and the fold induction at 50 µM [1, 3] was 1, the fold induction at 50 µM (P. aeruginosa; [4]) was 0.6 and the fold induction at 50 µM (K. pneumoniae; [5]) was 0.5. The fold induction at 50 µM (E. coli; [6]) was 0.7, the fold induction at 50 µM [2, 7] was 0.5 and the fold induction at 50 µM (E. faecium; [8]) was 0.9. It also gave a fold induction at 50 µM (E. cloacae; [9]) of 0.7.

In the case of CCC1(c2ccc(N)cc2)CCC(=O)NC1=O (stereo not drawn) [Glutethimide, para-amino], the “AK-based Prestwick Library Screening Results, A. baumannii (increase in extracellular AK activity)” value ([1]; 384-well format, […]) is reported as 0.6, the “AK-based Prestwick Library Screening Results, P. aeruginosa (increase in extracellular AK activity)” value (P. aeruginosa; 384-well format, […]) is reported as 0.6 and the “AK-based Prestwick Library Screening Results, K. pneumoniae (increase in extracellular AK activity)” value (K. pneumoniae; 384-well format, […]) is reported as 0.6. The “AK-based Prestwick Library Screening Results, E. coli (increase in extracellular AK activity)” value (E. coli; 384-well format, […]) was 0.5, the “AK-based Prestwick Library Screening Results, S. aureus (increase in extracellular AK activity)” value ([2]; 384-well format, […]) was 0.5 and the “AK-based Prestwick Library Screening Results, E. faecium (increase in extracellular AK activity)” value (E. faecium; 384-well format, […]) was 0.9. For the same compound, the “AK-based Prestwick Library Screening Results, E. cloacae (increase in extracellular AK activity)” value (E. cloacae; 384-well format, […]) was 0.5.

Nc1ccc(S(=O)(=O)Nc2ccccn2)cc1 [Sulfapyridine] was tested, and the fold induction at 50 µM ([1]; planktonic, […], read-out: AK-based Prestwick Library Screening Results, A. baumannii (fold increase in extracellular AK activity)) was 2.2, the fold induction at 50 µM (P. aeruginosa; planktonic, […], read-out: AK-based Prestwick Library Screening Results, P. aeruginosa (fold increase in extracellular AK activity)) was 1.1 and the fold induction at 50 µM (K. pneumoniae; planktonic, […], read-out: AK-based Prestwick Library Screening Results, K. pneumoniae (fold increase in extracellular AK activity)) was 0.9. It also gave a fold induction at 50 µM (E. coli; planktonic, […], read-out: AK-based Prestwick Library Screening Results, E. coli (fold increase in extracellular AK activity)) of 1.2, a fold induction at 50 µM ([2]; planktonic, […], read-out: AK-based Prestwick Library Screening Results, S. aureus (fold increase in extracellular AK activity)) of 1.4 and a fold induction at 50 µM (E. faecium; planktonic, […], read-out: AK-based Prestwick Library Screening Results, E. faecium (fold increase in extracellular AK activity)) of 1. It also gave a fold induction at 50 µM (E. cloacae; planktonic, […], read-out: AK-based Prestwick Library Screening Results, E. cloacae (fold increase in extracellular AK activity)) of 1.6.
